Laboratory results taken from publication PMC12655633, “Simultaneous Quantification of Multiple Analytes in Rat Plasma by UHPLC–MS/MS Following Oral Administration of Gastrodiae Rhizoma Extract for Pharmacokinetic Evaluation” (Molecules, 2025).

Test: Pharmacokinetic study in rats after oral administration of GR extract (UHPLC-MS/MS of plasma)
Format: in vivo, Sprague-Dawley rats
Conditions: for plasma concentration relative to LLOQ: rat plasma following gavage of GR extract; for AUC(0-inf) / AUC(0-t) / Cmax / Tmax / k el / half-life: male, Sprague-Dawley, po; for AUC(0-inf) / AUC(0-t) / Cmax / Tmax / k el / half-life / CL (clearance) / T1/2 / Vz (apparent volume of distribution): rat plasma, GR extract 9.6 g/kg intragastric gavage, mean ± SD, n = 6; for k el: read-out: λz (terminal elimination rate constant) (converted); for half-life: rat, plasma, 9.6 g/kg
Description: To each 100 μL plasma sample, 20 μL of methanol and 20 μL of IS (astragalin, 1 μg/mL) were added and vortexed for 1 min. Extraction was carried out with 800 μL of methanol, followed by vortexing for 5 min at room temperature. The sample was centrifuged at 12,000× g for 10 min. Subsequently, 750 µL of supernatant was transferred to a fresh tube and completely dried under flow nitrogen. The residue was reconstituted in 150 μL of 50% methanol (v/v), vortexed for 5 min, and centrifuged for 10 min. Finally, the resulting supernatant was injected into the UHPLC-MS/MS instrument.
In this study, six SPF-grade male Sprague-Dawley rats (six weeks old, 220 ± 10 g), supplied by Beijing HUAFUKANG Bioscience Co., Inc. (Beijing, China), were housed for seven days under controlled conditions (23 ± 2 °C, 50 ± 10% relative humidity) with ad libitum access to food and water. All rats underwent a 12 h fasting period before dosing, but maintained free access to water. This study’s animal care protocols and experimental procedures adhered to institutional policies and were formally authorized by the Animal Ethics Review Committee of Tianjin University of Traditional Chinese Medicine (Tianjin, China; Ref. TCM-LAEC2025003w1430). Each rat received a GR suspension at a dosage of 9.6 g/kg via intragastric gavage. Prior to dosing, 0.2 mL of blood was drawn from the retro-orbital plexus into a heparin-coated tube. Subsequent samples were collected at 0, 0.03, 0.08, 0.17, 0.25, 0.5, 0.75, 1, 2, 4, 6, 8, 12, 24, 36, and 48 h post-dose. Plasma was separated by centrifugation (6000× g, 10 min, 4 °C) and stored at −80 °C until further analysis.
Plasma concentrations of the fourteen target analytes were determined using the MassHunter Workstation (Agilent, USA; ver. B.09.00). Pharmacokinetic analysis was conducted with DAS software (Medical College of Wannan, Wuhu, Anhui, China; v. 3.0) using non-compartmental model to calculate pharmacokinetic parameters, including Cmax, Tmax, AUC(0–t), AUC(0–∞), clearance (CL), the apparent volume of distribution (Vz), and terminal elimination rate constant (λz) for each analyte. All parameters were summarized as mean ± standard deviation (SD) (n = 6), with the SD representing inter-individual variability in the pharmacokinetic behavior.

| SMILES | plasma concentration relative to LLOQ | AUC(0-inf) [ng·h/mL] | AUC(0-t) [ng·h/mL] | Cmax [ng/mL] | Tmax [h] | k el [s⁻¹] | half-life [h] | CL (clearance) [mL/min/kg] | T1/2 [h] | Vz (apparent volume of distribution) [L/kg] |
| --- | --- | --- | --- | --- | --- | --- | --- | --- | --- | --- |
| O=Cc1ccc(O)c(O)c1 [3,4-Dihydroxybenzaldehyde] | below the LLOQ at the majority of time points | – | – | – | – | – | – | – | – | – |
| Nc1ncnc2c1ncn2[C@@H]1O[C@H](CO)[C@@H](O)[C@H]1O [Adenosine] | below the LLOQ at the majority of time points | – | – | – | – | – | – | – | – | – |
| COc1cc2c(cc1OC)[C@@H](Cc1ccc(Oc3cc(C[C@@H]4c5cc(OC)c(OC)cc5CCN4C)ccc3O)cc1)N(C)CC2 [Dauricine] | below the LLOQ at the majority of time points | – | – | – | – | – | – | – | – | – |
| OCc1ccc(O[C@@H]2O[C@H](CO)[C@@H](O)[C@H](O)[C@H]2O)cc1 [Gastrodin] | – | 145000 | 143000 | 31500 | 1.5 ± 0.55 | 1.67e-05 | ~8 | 2.33 ± 0.5 | 8.30 ± 1.14 | 4.29 ± 3.24 |
| NC(=O)c1cccnc1 [Nicotinamide] | – | 59 ± 18.5 | 59 ± 18.5 | 25 ± 14.2 | 0.5 ± 0.02 | 6.11e-05 | 2.74 ± 0.42 | 6170.7 ± 2057.5 | – | 1588.63 ± 636.70 |
| COc1ccc(-c2cc(=O)c3c(OC)c(OC)c(OC)c(OC)c3o2)cc1OC [Nobiletin] | below the LLOQ at the majority of time points | – | – | – | – | – | – | – | – | – |
| O=C(O)CC(O)(CC(=O)OCc1ccc(O[C@@H]2O[C@H](CO)[C@@H](O)[C@H](O)[C@H]2O)cc1)C(=O)OCc1ccc(O[C@@H]2O[C@H](CO)[C@@H](O)[C@H](O)[C@H]2O)cc1 (some centres unmarked) [Parishin B] | – | 460 ± 222 | 460 ± 222 | 319 ± 157 | 0.1 ± 0.06 | 7.22e-05 | 2.67 ± 0.26 | 899.2 ± 438.3 | – | 215.10 ± 119.59 |
| O=C(O)CC(O)(CC(=O)OCc1ccc(O[C@@H]2O[C@H](CO)[C@@H](O)[C@H](O)[C@H]2O)cc1)C(=O)O (some centres unmarked) [Parishin E] | – | 13100 | 11600 | 2350 ± 1100 | 0.75 ± 0.01 | 1.39e-05 | ~8 | 26.3 ± 5.83 | 8.08 ± 3.33 | 41.00 ± 29.24 |
| O=C(CC(O)(CC(=O)OCc1ccc(O[C@@H]2O[C@H](CO)[C@@H](O)[C@H](O)[C@H]2O)cc1)C(=O)OCc1ccc(O[C@@H]2O[C@H](CO)[C@@H](O)[C@H](O)[C@H]2O)cc1)OCc1ccc(O[C@@H]2O[C@H](CO)[C@@H](O)[C@H](O)[C@H]2O)cc1 [ParishinA, Parishin A] | – | 572 ± 271 | 531 ± 256 | 210 ± 92.2 | 0.22 ± 0.07 | 1.39e-05 | 3.62 ± 0.26 | 676.3 ± 244.2 | – | 808.82 ± 409.11 |
| COc1cc(C=O)cc(OC)c1O [Syringaldehyde] | below the LLOQ at the majority of time points | – | – | – | – | – | – | – | – | – |
| O=Cc1ccc(O)cc1 [p-Hydroxybenzaldehyde] | – | 59.1 ± 21 | 56.7 ± 23.1 | 22.5 ± 3.04 | 0.25 ± 0.01 | 7.78e-05 | 5.86 ± 2.99 | 6285.8 ± 2280.5 | – | 4220.87 ± 5603.54 |
| O=C(O)c1ccc(O)cc1 [p-Hydroxybenzoic acid] | – | 1600 ± 384 | 1580 ± 381 | 442 ± 147 | 0.11 ± 0.05 | 4.44e-05 | 6.21 ± 3.33 | 218 ± 47.2 | – | 116.74 ± 60.67 |
| OCc1ccc(O)cc1 [p-Hydroxybenzyl alcohol] | – | 674000 | 672000 | 90500 | 1.63 ± 0.59 | 3.89e-05 | 5.31 ± 1.55 | 0.5 ± 0.17 | – | 0.24 ± 0.10 |
